The values below are quoted from earlier work in patent publication US20200306252A1, “COMPOSITION FOR PREVENTING AND/OR TREATING DEMENTIA” (priority 2019, published 2020).

SMILES strings stand for the structures.

Series [1] concerns β-amyloid. To be noted: cellular experiments.
In series [2] the test system is neural cells. Conditions: cellular experiments.
Series [3] has as its system patients with dementia. Conditions: clinical experiments; curcumin alone.

As for `COc1cc(/C=C/C(=O)CC(=O)/C=C/c2ccc(O)c(OC)c2)ccc1O` [curcumin], the bioavailability entry is reported as “poor”. Further, the “reducing β-amyloid aggregation” value in series [1] is reported as “effective”. Besides, the protecting neural cells result in series [2] is “effective”. Moreover, the “alleviation of the symptoms of patients with dementia” value in series [3] is “cannot effectively alleviate the symptoms”.
